Test results taken from US20100113613A1, “CYCLOHEXANE POLYALCOHOL FORMULATION FOR TREATMENT OF DISORDERS OF PROTEIN AGGREGATION” (WARATAH PHARMACEUTICALS, priority 2006, published 2010).

Key:
[1] = in vivo; conditions: dog, po
Protocol: (§1) Three studies were performed to investigate the pharmacokinetics of oral administration of a scyllo-cyclohexanehexyl (Table 1):
Two studies have investigated the single dose PK of oral administration of a scyllo-cyclohexanehexyl in dogs. The 14 day study investigated 18 animals. On Day 1 of this study Cmax and AUC values increased proportionally with dose level of a scyllo-cyclohexanehexyl. […] The extensive brain penetrance of the scyllo-cyclohexanhexyl (see below) may be relevant in this regard.

[2] = Single oral and intravenous dose pharmacokinetics, dose range-finding study in beagle dogs; type: in vivo, beagle dog; conditions: for Tmax: po; for Vd: read-out: VdSS
Protocol: PK of single oral doses of the scyllo-cyclohexanhexyl was also investigated in a preliminary fashion in a dose range-finding study in 5 beagle dogs. […] The Cmax and AUC values increased proportionally with dose, consistent with observations in the larger study. Estimates of t½ ranged from 2 to 5 hours. Neither dose nor route of administration had any clear effect on t½, MRT, Cl/F or Vdss.

[3] = in vivo; conditions: rat, po
Protocol: as §1
Plasma pharmacokinetics (PK) of a scyllo-cyclohexanehexyl in rats was assessed after single oral doses of 15, 50 and 150 mg/kg. After single oral doses in rats, maximum plasma concentration (Cmax) and exposure (AUC0-t) values increased proportionally with dose level of the scyllo-cyclohexanehexyl. Other parameters were unchanged with dose level. The scyllo-cyclohexanehexyl was absorbed rapidly, with mean tmax observed between 1.0 and 2.2 hours post-dose. […] Estimates of mean residence time (MRT) were consistent. Volumes of distribution (Vdss) were large, indicating wide distribution of scyllo-cyclohexanehexyl in rats.

[4] = beagle, dog, plasma, dogs, single intravenous dose 80 mg/kg
[5] = beagle, dog, plasma, dogs, single intravenous dose 240 mg/kg
[6] = beagle, dog, plasma, dogs, single oral dose 20 mg/kg
[7] = beagle, dog, plasma, dogs, single oral dose 80 mg/kg
[8] = beagle, dog, plasma, dogs, single oral dose 240 mg/kg
[9] = dogs, single intravenous dose 80 mg/kg
[10] = dogs, single intravenous dose 240 mg/kg

OC1C(O)C(O)C(O)C(O)C1O (centres unmarked) [AZD-103, scyllo-inositol]
AUC(0-inf) ([1]; 15 mg/kg): 23.8 ± 4.5 µg·h/mL | AUC(0-t) ([1]; 15 mg/kg): 22.6 ± 4.5 µg·h/mL | CL/F ([1]; 15 mg/kg): 3.04 mL/min/kg | Cmax ([1]; 15 mg/kg): 10000 ± 2500 ng/mL | MRT ([1]; 15 mg/kg): 3.5 ± 0.8 h | Tmax ([1]; 15 mg/kg): 1.7 ± 0.5 h | VdSS ([1]; 15 mg/kg): 0.6325 ± 0.2371 L/kg | half-life ([1]; 15 mg/kg): 2 ± 0.8 h | kel ([1]; 15 mg/kg): 0.4 ± 0.2 h⁻¹ | AUC(0-inf) ([1]; 50 mg/kg): 116 ± 22.8 µg·h/mL | AUC(0-t) ([1]; 50 mg/kg): 114 ± 22.9 µg·h/mL | CL/F ([1]; 50 mg/kg): 2.07 mL/min/kg | Cmax ([1]; 50 mg/kg): 47400 ± 12700 ng/mL | MRT ([1]; 50 mg/kg): 2.9 ± 0.3 h | Tmax ([1]; 50 mg/kg): 1.2 ± 0.4 h | VdSS ([1]; 50 mg/kg): 0.3659 ± 0.1219 L/kg | half-life ([1]; 50 mg/kg): 2.1 ± 0.3 h | kel ([1]; 50 mg/kg): 0.3 ± 0.04 h⁻¹ | AUC(0-inf) ([1]; 150 mg/kg): 455 ± 121 µg·h/mL | AUC(0-t) ([1]; 150 mg/kg): 450 ± 118 µg·h/mL | CL/F ([1]; 150 mg/kg): 1.56 mL/min/kg | Cmax ([1]; 150 mg/kg): 124000 ± 22700 ng/mL | MRT ([1]; 150 mg/kg): 3.3 ± 0.3 h | Tmax ([1]; 150 mg/kg): 2.2 ± 0.4 h | VdSS ([1]; 150 mg/kg): 0.3074 ± 0.0744 L/kg | half-life ([1]; 150 mg/kg): 1.7 ± 0.2 h | kel ([1]; 150 mg/kg): 0.4 ± 0.05 h⁻¹ | Tmax ([2]; beagle, dog, plasma, 20 mg/kg, dogs, single oral dose 20 mg/kg): 1.5 ± 0.6 h | Tmax ([2]; beagle, dog, plasma, 80 mg/kg, dogs, single oral dose 80 mg/kg): 2 ± 1.2 h | Tmax ([2]; beagle, dog, plasma, 240 mg/kg, beagle dogs, following an oral dose (20, 80 and 240 mg/kg)): 1.5 to 2 h | Tmax ([2]; beagle, dog, plasma, 240 mg/kg, dogs, single oral dose 240 mg/kg): 2 ± 1.4 h | bioavailability ([2]; beagle, dog, plasma, dogs, 80 mg/kg dose level, oral vs i.v.): > 90% | AUC(0-inf) [2, 4]: 173 ± 9 µg·h/mL | AUC(0-t) [2, 4]: 167 ± 7 µg·h/mL | MRT [2, 4]: 4.6 ± 1.2 h | Vd [2, 4]: 2.1 L/kg | half-life ([2]; beagle, dog, plasma, dogs, single intravenous dose 80 mg/kg, read-out: t1/2 (converted)): 3.3 ± 0.3 h | AUC(0-inf) [2, 5]: 248 ± 25 µg·h/mL | AUC(0-t) [2, 5]: 244 ± 24 µg·h/mL | MRT [2, 5]: 3.3 ± 0.5 h | Vd [2, 5]: 3.22 L/kg | half-life ([2]; beagle, dog, plasma, dogs, single intravenous dose 240 mg/kg, read-out: t1/2 (converted)): 2.3 ± 0.2 h | AUC(0-inf) [2, 6]: 51.7 ± 15.7 µg·h/mL | AUC(0-t) [2, 6]: 42.1 ± 8.4 µg·h/mL | CL/F [2, 6]: 6.97 mL/min/kg | Cmax [2, 6]: 5900 ± 3100 ng/mL | MRT [2, 6]: 10.1 ± 5.9 h | half-life ([2]; beagle, dog, plasma, dogs, single oral dose 20 mg/kg, read-out: t1/2 (converted)): 5 ± 3.9 h | AUC(0-inf) [2, 7]: 246 ± 53 µg·h/mL | AUC(0-t) [2, 7]: 243 ± 54 µg·h/mL | CL/F [2, 7]: 5.63 mL/min/kg | Cmax [2, 7]: 69000 ± 23500 ng/mL | MRT [2, 7]: 4.1 ± 0.8 h | half-life ([2]; beagle, dog, plasma, dogs, single oral dose 80 mg/kg, read-out: t1/2 (converted)): 2 ± 0.3 h | AUC(0-inf) [2, 8]: 489 ± 99 µg·h/mL | AUC(0-t) [2, 8]: 477 ± 94 µg·h/mL | CL/F [2, 8]: 8.45 mL/min/kg | Cmax [2, 8]: 89500 ± 27800 ng/mL | MRT [2, 8]: 5.2 ± 0.2 h | half-life ([2]; beagle, dog, plasma, dogs, single oral dose 240 mg/kg, read-out: t1/2 (converted)): 2 ± 0.4 h | half-life ([2]; dog, plasma, other: oral and intravenous (range over both routes), beagle dogs, 20, 80 and 240 mg/kg p.o., 80 and 240 mg/kg i.v., read-out: t½): 2 to 5 h | Cp0 [2, 9]: 87.2 ± 13.2 µg/mL | kel [2, 9]: 0.21 ± 0.02 h⁻¹ | Cp0 [2, 10]: 127.9 ± 19.1 µg/mL | kel [2, 10]: 0.30 ± 0.02 h⁻¹ | kel ([2]; dogs, single oral dose 20 mg/kg): 0.2 ± 0.2 h⁻¹ | kel ([2]; dogs, single oral dose 80 mg/kg): 0.4 ± 0.1 h⁻¹ | kel ([2]; dogs, single oral dose 240 mg/kg): 0.4 ± 0.1 h⁻¹ | AUC(0-inf) ([3]; 15 mg/kg): 41.9 ± 11.9 µg·h/mL | AUC(0-t) ([3]; 15 mg/kg): 39.7 ± 11.3 µg·h/mL | CL/F ([3]; 15 mg/kg): 12.8 mL/min/kg | Cmax ([3]; 15 mg/kg): 13200 ± 2000 ng/mL | MRT ([3]; 15 mg/kg): 3.7 ± 0.5 h | Tmax ([3]; 15 mg/kg): 1 h | Vd ([3]; 15 mg/kg): 2.82 L/kg | half-life ([3]; 15 mg/kg): 2.7 ± 0.6 h | kel ([3]; 15 mg/kg): 0.27 ± 0.07 h⁻¹ | AUC(0-inf) ([3]; 50 mg/kg): 169 ± 31.8 µg·h/mL | AUC(0-t) ([3]; 50 mg/kg): 163 ± 29 µg·h/mL | CL/F ([3]; 50 mg/kg): 10.1 mL/min/kg | Cmax ([3]; 50 mg/kg): 45300 ± 7100 ng/mL | MRT ([3]; 50 mg/kg): 3.6 ± 0.6 h | Tmax ([3]; 50 mg/kg): 1.5 ± 0.5 h | Vd ([3]; 50 mg/kg): 2.13 L/kg | half-life ([3]; 50 mg/kg): 2.4 ± 0.2 h | kel ([3]; 50 mg/kg): 0.29 ± 0.02 h⁻¹ | AUC(0-inf) ([3]; 150 mg/kg): 552 ± 154 µg·h/mL | AUC(0-t) ([3]; 150 mg/kg): 537 ± 154 µg·h/mL | CL/F ([3]; 150 mg/kg): 9.55 mL/min/kg
